US20100041089A1, “IMPROVED METHOD FOR DETECTING CHEMICAL […]” (priority 2006, published 2010)

Test system: yeast genes (expressed mRNA)
Test: DNA chip measurement of expressed mRNA of yeast genes after culture with a toxic chemical substance
Format: cell-based, Saccharomyces cerevisiae S288C
Procedure, shortened: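 Each expression value is the mRNA level in chemical-treated yeast divided by that in untreated yeast, from Cy3/Cy5 fluorescence on a whole-genome chip. Log-phase S288C cells in YPD at 25° C had received a sublethal, growth-inhibiting dose for two hours. Intensity denotes control expression relative to the all-gene mean.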

Measured: The level of expressed mRNA in the presence of chemical substance/The level of expressed mRNA in the absence of chemical substance

C=CC=O [(14), Acrolein]
11.0: yeast gene YLL056C, cultured two hours with substance
2.0: yeast gene YBL048W, cultured two hours with substance | yeast gene YHR199C, cultured two hours with substance
1.8: yeast gene YDL072C, cultured two hours with substance | yeast gene YER004W, cultured two hours with substance | yeast gene YNR068C, cultured two hours with substance
1.0: yeast gene YER035W, cultured two hours with substance | yeast gene YGL037C, cultured two hours with substance | yeast gene YJL066C, cultured two hours with substance | yeast gene YJL108C, cultured two hours with substance | yeast gene YJL171C, cultured two hours with substance | yeast gene YNL115C, cultured two hours with substance | yeast gene YNL208W, cultured two hours with substance | yeast gene YOL036W, cultured two hours with substance
1.6: yeast gene YER079W, cultured two hours with substance | yeast gene YJL057C, cultured two hours with substance | yeast gene YKL195W, cultured two hours with substance | yeast gene YPL196W, cultured two hours with substance
0.5: yeast gene YJL082W, cultured two hours with substance | yeast gene YLR280C, cultured two hours with substance | yeast gene YOR248W, cultured two hours with substance
0.6: yeast gene YFL032W, cultured two hours with substance | yeast gene YNL074C, cultured two hours with substance | yeast gene YNL190W, cultured two hours with substance
1.2: yeast gene YAR028W, cultured two hours with substance | yeast gene YJL020C, cultured two hours with substance | yeast gene YJR008W, cultured two hours with substance | yeast gene YJR054W, cultured two hours with substance | yeast gene YLR149C, cultured two hours with substance | yeast gene YLR152C, cultured two hours with substance | yeast gene YLR194C, cultured two hours with substance | yeast gene YMR140W, cultured two hours with substance | yeast gene YNL044W, cultured two hours with substance | yeast gene YNL092W, cultured two hours with substance | yeast gene YNL281W, cultured two hours with substance | yeast gene YOL047C, cultured two hours with substance | yeast gene YPL087W, cultured two hours with substance
5.0: yeast gene YBL064C (detoxification protein gene) | yeast gene YGR209C (detoxification protein gene)
21.9: yeast gene YKL071W, cultured two hours with substance
6.6: yeast gene YKL198C
3.7: yeast gene YDL021W, cultured for two hours with substance
2.9: yeast gene YKL086W, cultured two hours with substance
1.5: yeast gene YBL049W, cultured two hours with substance | yeast gene YCR013C, cultured two hours with substance | yeast gene YEL057C, cultured two hours with the chemical substance | yeast gene YER106W, cultured two hours with substance | yeast gene YIL024C, cultured two hours with substance | yeast gene YIL057C, cultured two hours with the chemical substance | yeast gene YJL036W, cultured two hours with substance | yeast gene YLR031W, cultured two hours with substance | yeast gene YMR067C, cultured two hours with substance | yeast gene YMR184W, cultured two hours with substance | yeast gene YMR191W, cultured two hours with substance | yeast gene YNL195C, cultured two hours with the chemical substance | yeast gene YNL234W, cultured two hours with substance | yeast gene YOR049C, cultured two hours with substance
10.6: yeast gene YLL060C (detoxification protein gene) | yeast gene YLL060C (stress protein genes)
4.8: yeast gene YDL218W, cultured two hours with substance
2.4: yeast gene YDL204W, cultured two hours with substance | yeast gene YDR486C, cultured two hours with substance | yeast gene YLR205C, cultured two hours with substance
5.1: yeast gene YNL036W
1.1: yeast gene YDR330W, cultured two hours with substance | yeast gene YER175C, cultured two hours with substance | yeast gene YGL053W, cultured two hours with substance | yeast gene YJL149W, cultured two hours with substance | yeast gene YKL153W, cultured two hours with substance | yeast gene YLR054C, cultured two hours with substance | yeast gene YPL206C, cultured two hours with substance | yeast gene YPL222W, cultured two hours with substance
2.7: yeast gene YBR116C, cultured two hours with substance
0.9: yeast gene YER158C, cultured two hours with substance | yeast gene YGR101W, cultured two hours with substance | yeast gene YGR130C, cultured two hours with substance | yeast gene YPR023C, cultured two hours with substance
9.3: yeast gene YPL171C, cultured for two hours with substance
3.3: yeast gene YFL024C, cultured two hours with substance
2.1: yeast gene YFR003C, cultured two hours with substance | yeast gene YGR064W, cultured two hours with the chemical substance | yeast gene YKL065C, cultured two hours with substance | yeast gene YKR049C, cultured two hours with substance | yeast gene YKR097W, cultured for two hours with substance | yeast gene YLR408C, cultured two hours with the substance | yeast gene YML054C, cultured for two hours with substance | yeast gene YML087C, cultured for two hours with substance | yeast gene YMR097C, cultured two hours with substance | yeast gene YNL155W, cultured two hours with substance
1.3: yeast gene YDL222C, cultured two hours with substance | yeast gene YEL001C, cultured two hours with substance | yeast gene YER038C, cultured two hours with substance | yeast gene YGR146C, cultured two hours with substance | yeast gene YIL041W, cultured two hours with substance | yeast gene YIL087C, cultured two hours with substance | yeast gene YJL151C, cultured two hours with substance | yeast gene YKL151C, cultured two hours with substance | yeast gene YMR195W, cultured two hours with substance | yeast gene YMR295C, cultured two hours with substance | yeast gene YMR316W, cultured two hours with substance | yeast gene YNL305C, cultured two hours with substance | yeast gene YOL032W, cultured two hours with substance | yeast gene YPR079W, cultured two hours with substance
3.2: yeast gene YPL052W, cultured two hours with substance
0.8: yeast gene YDR411C, cultured two hours with substance | yeast gene YGL199C, cultured two hours with substance | yeast gene YJL186W, cultured two hours with substance | yeast gene YML117W, cultured two hours with substance | yeast gene YNL300W, cultured two hours with substance | yeast gene YNR064C, cultured two hours with substance
2.6: yeast gene YBR062C, cultured two hours with substance | yeast gene YIL117C, cultured two hours with substance
2.5: yeast gene YBL107C, cultured two hours with substance | yeast gene YDR031W, cultured two hours with substance | yeast gene YJR048W, cultured for two hours with substance | yeast gene YOL071W, cultured two hours with substance | yeast gene YOR338W, cultured two hours with substance
3.4: yeast gene YHR138C, cultured two hours with substance
14.7: yeast gene YKR076W
3.1: yeast gene YGL091C, DNA repair protein genes, cultured two hours with substance
6.5: yeast gene YMR090W, cultured two hours with substance
2.2: yeast gene YDR511W, cultured two hours with substance | yeast gene YGR154C, cultured two hours with substance | yeast gene YHR209W, cultured two hours with substance | yeast gene YJL161W, cultured two hours with substance | yeast gene YMR095C, cultured two hours with substance
7.3: yeast gene YFL014W, DNA repair protein genes, cultured two hours with substance
8.1: yeast gene YMR107W, cultured two hours with substance
4.7: yeast gene YDL059C, DNA repair protein genes, cultured two hours with substance | yeast gene YMR096W, DNA repair protein genes, cultured two hours with substance
1.7: yeast gene YFL006W, cultured two hours with substance | yeast gene YLR387C, cultured two hours with substance | yeast gene YMR180C, cultured two hours with substance | yeast gene YOL117W, cultured two hours with substance
5.9: yeast gene YIL015W
1.4: yeast gene YFL010C, cultured two hours with substance | yeast gene YGR221C, cultured two hours with substance | yeast gene YJL152W, cultured two hours with substance | yeast gene YLR324W, cultured two hours with substance | yeast gene YNL156C, cultured two hours with substance | yeast gene YOL082W, cultured two hours with substance | yeast gene YOL083W, cultured two hours with substance | yeast gene YOL162W, cultured two hours with substance | yeast gene YOR019W, cultured two hours with substance | yeast gene YPR151C, cultured two hours with substance
5.8: yeast gene YGL121C, cultured two hours with substance | yeast gene YHR179W, cultured for two hours with substance
0.7: yeast gene YAL053W, cultured two hours with substance | yeast gene YDR545W, cultured two hours with substance | yeast gene YIL023C, cultured two hours with substance | yeast gene YMR102C, cultured two hours with substance | yeast gene YOR197W, cultured two hours with substance
4.1: yeast gene YCR102C, cultured two hours with substance | yeast gene YGR043C, cultured for two hours with substance
2.3: yeast gene YDR391C, cultured two hours with substance | yeast gene YGL047W, cultured two hours with substance | yeast gene YGL136C, cultured two hours with substance | yeast gene YOL131W, cultured two hours with substance
4.6: yeast gene YER012W | yeast gene YNL335W
3.5: yeast gene YHR029C, cultured two hours with substance | yeast gene YLR460C, cultured two hours with substance
5.7: yeast gene YOL150C, cultured two hours with substance
2.8: yeast gene YGR110W, cultured two hours with substance | yeast gene YLR350W, cultured two hours with substance
1.9: yeast gene YER163C, cultured two hours with substance | yeast gene YKR091W, cultured two hours with substance | yeast gene YMR009W, cultured two hours with substance
